Experimental data reported in ChEMBL document CHEMBL4616670, “Phosphine Oxides from a Medicinal Chemist's Perspective: Physicochemical and in Vitro Parameters Relevant for Drug Discovery” (J Med Chem, 2020).
In brackets after ≈: the same amount, converted by molar mass.

Columns and labels:
in vitro [1] = details: human, Caco-2
Description: Efflux ratio of permeability in human Caco2 cells measured up to 2 hrs by LC-MS/MS analysis or scintillation counting method

[2] = 168 h
Description: Chemical stability of the compound in MeOH/NH3 solution at pH >10 assessed as compound decomposition measured after 7 days by UV-RP-HPLC analysis

physchem [3] = details: pH 6.8 buffer
physchem [4] = details: pH 6.8 buffer; remark: listed apart in the source
physchem [5] = details: octanol/water, pH 2
Description: Octanol/water partition coefficient, log D of the compound at pH 2

physchem [6] = details: MeOH/HCl solution
Description: Chemical stability of the compound in MeOH/HCl solution at pH <1 assessed as compound decomposition measured after 7 days by UV-RP-HPLC analysis

physchem [7] = details: octanol/water, pH 11
Description: Octanol/water partition coefficient, log D of the compound at pH 11

in vitro [8] = details: human, liver microsomes
Description: Stability in human liver microsomes at 1 uM incubated prior to NADPH addition by LC-MS/MS analysis relative to hepatic blood flow

in vitro [9] = details: human, Caco-2; remark: listed apart in the source
Description: Permeability across apical to basolateral side in human Caco2 cells measured up to 2 hrs by LC-MS/MS analysis or scintillation counting method

in vitro [10] = details: human, liver microsomes; remark: listed apart in the source
Description: Half life in human liver microsomes at 1 uM incubated prior to NADPH addition by LC-MS/MS analysis

[11] = Basic dissociation constant, pKb of the compound by UV absorption spectra analysis or potentiometric titration technique; format: physicochemical

SMILES	efflux ratio at 2 h (in vitro [1])	Drug degradation [2]	solubility thermodynamic at 24 h (physchem [3])	solubility thermodynamic at 24 h (physchem [4])	logD (physchem [5])	degraded at 168 h (physchem [6])	logD (physchem [7])	hepatic extraction ratio at 1 µM (in vitro [8])	Papp A→B at 2 h (in vitro [9])	half-life at 1 µM (in vitro [10])	pKb [11]
COP(=O)(OC)c1ccc(C(F)(F)F)cc1	0.5	< 10%	10100 µg/mL (≈ 39700 µM)	50 µg/mL (≈ 197 µM)	2.5	< 10%	2.2	< 0.23	85 ×10⁻⁶ cm/s	> 2.17 h	
CCP(=O)(CC)c1ccc(C(F)(F)F)cc1	0.7	< 10%	22500 µg/mL (≈ 89900 µM)	> 60 µg/mL	2.3	< 10%	2	< 0.23	88 ×10⁻⁶ cm/s	> 2.17 h	
CCOP(=O)(OCC)c1ccc(C(F)(F)F)cc1	0.6	< 10%	1300 µg/mL (≈ 4610 µM)	> 61 µg/mL	3.4	< 10%	3.2	< 0.23	95 ×10⁻⁶ cm/s	> 2.17 h	
CN=S(C)(=O)c1ccc(C(F)(F)F)cc1 (stereo not given)	1		2400 µg/mL (≈ 10100 µM)	> 54 µg/mL	0.7		1.7		67 ×10⁻⁶ cm/s		
CN(C)S(=O)(=O)c1ccc(C(F)(F)F)cc1			90 µg/mL (≈ 355 µM)	47 µg/mL (≈ 186 µM)	3.4						
COC(=O)c1ccc(C(F)(F)F)cc1			20 µg/mL (≈ 98 µM)	< 1 µg/mL							
C[S+]([O-])c1ccc(C(F)(F)F)cc1 (stereo not given)			11100 µg/mL (≈ 53300 µM)	> 46 µg/mL	1.7		1.4				
CS(=N)(=O)c1ccc(C(F)(F)F)cc1 (stereo not given)	0.7		9100 µg/mL (≈ 40800 µM)	> 50 µg/mL	0.8		0.9		88 ×10⁻⁶ cm/s		2.5
CN1CCP(=O)(c2ccc(C(F)(F)F)cc2)CC1	0.7	< 10%	> 30000 µg/mL	> 66 µg/mL	0	< 10%	0.9	< 0.23	52 ×10⁻⁶ cm/s	> 2.17 h	6.3
CS(=O)(=O)c1ccc(C(F)(F)F)cc1			300 µg/mL (≈ 1340 µM)	> 47 µg/mL							
CCOP(C)(=O)c1ccc(C(F)(F)F)cc1 (stereo not given)	1				2.5		2.3	< 0.23	69 ×10⁻⁶ cm/s	> 2.17 h	
O=P1(c2ccc(C(F)(F)F)cc2)CCC1	0.8	< 10%	24500 µg/mL (≈ 105000 µM)	> 53 µg/mL	1.8	< 10%	1.6	< 0.23	78 ×10⁻⁶ cm/s	> 2.17 h	
CN=S(=O)(NC)c1ccc(C(F)(F)F)cc1 (stereo not given)	0.5		1200 µg/mL (≈ 4760 µM)	> 57 µg/mL	0.7		1.8		81 ×10⁻⁶ cm/s		
CC(C)(C)OC(=O)c1ccc(C(F)(F)F)cc1			20 µg/mL (≈ 81.2 µM)	7 µg/mL (≈ 28.4 µM)							
NS(=O)(=O)c1ccc(C(F)(F)F)cc1	0.6		800 µg/mL (≈ 3550 µM)	> 48 µg/mL					83 ×10⁻⁶ cm/s		
CC(C)OP(=O)(OC(C)C)c1ccc(C(F)(F)F)cc1	0.5	< 10%	400 µg/mL (≈ 1290 µM)	29 µg/mL (≈ 93.5 µM)	4.3	< 10%	4.2	< 0.23	84 ×10⁻⁶ cm/s	> 2.17 h	
CCOP(=O)(OCC)c1ccncc1	0.7		29500 µg/mL (≈ 137000 µM)	> 50 µg/mL	0		0.2	< 0.23	66 ×10⁻⁶ cm/s	> 2.17 h	
CNS(=O)(=O)c1ccc(C(F)(F)F)cc1	0.9		900 µg/mL (≈ 3760 µM)	> 49 µg/mL					36 ×10⁻⁶ cm/s		
